According to US20070148723A1, “METHOD AND APPARATUS FOR DETECTING PRESENCE OF TOXIC MATERIAL WITHIN SAMPLE” (SAMSUNG ELECTRONICS CO., LTD., priority 2005, published 2007):

Key:
[1] = tested on: electron transfer system of sub-mitochondrial particles; format: biochemical; conditions: for cathode peak current at 1.019 V relative to a sample of 0 wt %: 2.5 wt %, FIG. 4 / FIG. 5
Text: FIGS. 1A is a diagram of an exemplary embodiment of a current measuring device; and FIG. 1B is a schematic diagram of an exemplary embodiment of a current measuring apparatus. Referring to FIG. 1A, a reaction vessel 10 includes an Ag/AgCl standard electrode 20 (RE in FIG. 1B), a platinum working electrode 30 (WE in FIG. 1B), and a platinum counter electrode 40 (CE in FIG. 1B). The standard electrode 20, the working electrode 30, and the counter electrode 40 are connected to a voltmeter 50 (e.g., a Perkin-Elmer VMP multichannel potentiostat; V in FIG. 1B). An X/Y plotter 60 is connected to the voltmeter 50. 0.5× PBS including 0.5 mg/ml of SMP (submitochondrial particle) (Havard Bioscience), 6 mM of NADH, and 50 mM of KCl was allowed to react at ambient temperature for 1 hour. […] The cyclic voltammogram was measured with a scan speed of 50 mV/sec CV at a sweep range of 0.85 to 1.35 V. […] FIG. 3 is a graph showing the cyclic voltammogram of 2.5 mM Ru(bpy)3^2+ in phosphate-buffered saline (PBS). Then, ethanol samples having final concentrations (on a weight basis) of 0 wt %, 2.5 wt %, 5 wt %, and 10 wt %, or a sample having 2.5 wt % of sorbitol was added to 0.5× PBS including 0.5 mg/ml of SMP, (submitochondrial particle), 6 mM of NADH, and 50 mM of KCl to prepare 7 ml of a final reaction solution and was allowed to react for 1 hour at ambient temperature. Next, absorbance of the final reaction solution was measured at 340 nanometers (nm) using a spectrophotometer and the concentration of NADH was measured using an optical method. […] The cyclic voltammogram was measured with a scan speed of 50 mV/sec CV at a sweep range of 0.85 to 1.35V.

[2] = tested on: electron transfer system of sub-mitochondrial particles; test: Optical method: NADH concentration by absorbance at 340 nm of SMP/NADH reaction solution; format: biochemical; conditions: 2.5 wt %
Protocol: Then, ethanol samples having final concentrations (on a weight basis) of 0 wt %, 2.5 wt %, 5 wt %, and 10 wt %, or a sample having 2.5 wt % of sorbitol was added to 0.5× PBS including 0.5 mg/ml of SMP, (submitochondrial particle), 6 mM of NADH, and 50 mM of KCl to prepare 7 ml of a final reaction solution and was allowed to react for 1 hour at ambient temperature. Next, absorbance of the final reaction solution was measured at 340 nanometers (nm) using a spectrophotometer and the concentration of NADH was measured using an optical method. […] The cyclic voltammogram was measured with a scan speed of 50 mV/sec CV at a sweep range of 0.85 to 1.35V.

[3] = 0.5 mg/ml SMP, 6 mM NADH, 1 hour at ambient temperature

| SMILES | effect on electron transfer reaction of sub-mitochondrial particles (toxicity) [1] | cathode peak current at 1.019 V in a cyclic voltammogram as concentration increases ([1]; 0, 2.5, 5 and 10 wt %, 0.5 mg/ml SMP, 6 mM NADH, 1 hour at ambient temperature, FIG. 4) | cathode peak current at 1.019 V relative to a sample of 0 wt % [1, 3] | toxicity by optical measurement ([2]; conclusion from absorbance at 340 nm) | absorbance at 340 nm compared to a sample of 0 wt % ([2]; spectrophotometer, data not illustrated) |
| --- | --- | --- | --- | --- | --- |
| CCO [ethanol] | obstructs the electron transfer reaction of sub-mitochondrial particles | moves towards in less negative (i.e., more positive, cathodic) direction | moves toward a less negative value | – | – |
| OC[C@@H](O)[C@@H](O)[C@H](O)[C@@H](O)CO [sorbitol] | does not include toxic material | – | moves towards a more negative value | no toxicity | no changes |
